Test results: patent publication EP1166781A1, “PROTEASOME INHIBITORS” (KYOWA HAKKO KOGYO CO., LTD., priority 1999, dated 2000)
Where two headings read alike, the source gives them in different places.

Columns and labels:
[1] = system: Human colon cancer, WiDr cells; assay: Antiproliferative activity in WiDr cells (MTT, 72 hours); type: cell-based
Description: Human colon cancer, WiDr cells suspended in MEM media containing 10% of fetal calf serum were seeded in 96-well microtiter plates at 2 x 10^3cells/well, and precultured in an incubator with 5% of CO2 at 37°C for 24 hours. Then, each compound diluted appropriately with the media was added into the well at 50 µl/well. At this time, a final concentration of each compound is up to 100 µmol/l or 1 µmol/l. The cells were cultured in the incubator with 5% of CO2 at 37°C for additional 72 hours. At 5 hours before the culturing was terminated, MTT [3-(4,5-dimethylthiazol-2-yl)-2,5-[…] bromide] dissolved in the medium at a final concentration of 1 mg/mL was added into the well at 50 µl/well. After the culturing, dimethyl sulfoxide was added to the well at 150 µl/well, and the plate was vigorously stirred using a plate mixer to dissolve crystals of MTT-formazan completely. […]

proteasome = molecular target: T1, proteasome (Homo sapiens, UniProt P28074); assay: Proteasome inhibitory activity (Suc-Leu-Leu-Val-Tyr-AMC cleavage, crude enzyme solution from HeLa S3 cell extract); type: biochemical
T1 construct: The obtained high molecular fraction (molecular weight >500K) was used as an enzyme solution for the detection of proteasome activity; endogenous in cells; host or cells: HeLa S3 cells: homogenate, 100,000G supernatant, >500K fraction from Centricon-500
Description: 1 x 10^9 of HeLa S3 cells were dispersed in 5 ml of the buffer A [20 mmol/L of Tris (pH 7.5), 2 mmol/L of ATP, 5 mmol/L of MgCl2, 1 mmol/L of dithiothreitol (DTT)], and then homogenized at 4°C. The supernatant centrifuged at 100,000G was concentrated by a Centricon-500 (supplied by Amicon) and diluted with 2.5 ml of the buffer B [25 mmol/L of Tris/HCl (pH 7.5), 2 mmol/L of ATP, 1 mmol/L of DTT, 20% of glycerol]. The obtained high molecular fraction (molecular weight >500K) was used as an enzyme solution for the detection of proteasome activity. Suc-Leu-Leu-Val-Tyr-AMC [Suc: Succinyl; AMC: Aminomethylcoumarin](supplied by Peptide Institute, Inc.) was used as a substrate for measuring inhibitory activity for proteasome (stored as a 2 mmol/L DMSO solution). The reaction was carried out by the following method using 96-well microtiter plates. To 96 µl of a reaction buffer [20 mmol/L of Tris/HCl (pH 8), 0.5 mmol/L of EDTA, 0.04% of sodium dodecylsulfate (SDS)] were added 1 µl of a drug solution (DMSO) and 2 µl of an enzyme solution followed by adding 1 µl of a substrate solution thereto, and then the mixture was incubated at 37°C for one hour. […]

[2] = system: human colon cancer cell line, WiDr transplanted in nude mice; assay: Antitumor activity for WiDr transplanted in nude mice; type: in vivo, BALB/c-nu/nu mouse; settings: intraperitoneally for 5 consecutive days, 7 days, WiDr solid tumor in mice
Description: Compound 4 was dissolved in ethanol and then prepared at the fixed concentrations by adding cremophor EL (supplied by SIGMA) and saline. At this time, final concentrations of ethanol, cremophor EL, and saline are 5%, 7.5% and 87.5%, respectively. 2 mm x 2 mm of the tumor piece of human colon cancer cell line, WiDr was subcutaneously transplanted in the ventral site of a BALB/c-nu/nu mouse. At the time when a tumor volume [a major axis (a), a minor axis (b): ab^2/2] attained to 25-60 mm^3, the test compound prepared was intraperitoneally administered for 5 consecutive days to five mice as one proup.
For evaluating antitumor activity of the compound, the tumor volume was measured everyday, and the ratio of the volume (V) on the day of each measurement to the volume (V0) on the day when the administration of the compound was started was obtained to calculate T/C(%).

[3] = crude proteasome fraction (>500K) from HeLa S3 cells, substrate Suc-Leu-Leu-Val-Tyr-AMC, 37°C for one hour, read-out: IC50

| SMILES | IC50 [1] [nM] | IC50 (proteasome; [3]) [nM] | further results |
| --- | --- | --- | --- |
| CCC(C)C1C(=O)OC1C(=O)NC1CC1CC(NC(=O)C(C)N)C(=O)OCc1ccccc1 (centres unmarked) [Compound 4] | 50 | 30 | T/C ([2]; Dose 5.0 mg/kg/day): 56%; T/C ([2]; Dose 10.0 mg/kg/day): 49% |
| CCC(C)C1C(=O)OC1C(=O)NC1CC1CC(NC(=O)C(C)N(Cc1ccccc1)Cc1ccccc1)C(=O)OCc1ccccc1 (centres unmarked) [Compound 43] | 3900 | 14 | – |
| CCC(C)C1C(=O)OC1C(=O)NC1CC1CC(NC(=O)C(C)NC(=O)CO[Si](C)(C)C(C)(C)C)C(=O)OCc1ccccc1 (centres unmarked) [Compound 37] | 5700 | 6 | – |
| CCC(C)C1C(=O)OC1C(=O)NC1CC1CC(NC(=O)C(C)NC(=O)OC(C)(C)C)C(=O)NNc1ccccc1 (centres unmarked) [Compound 23] | 410 | – | IC50 (proteasome): 17 nM |
| CCC(C)C1C(=O)OC1C(=O)NC1CC1CC(NC(=O)C(C)NC(=O)OC(C)(C)C)C(=O)NCc1ccccc1 (centres unmarked) [Compound 19] | 190 | 6.2 | – |
| CCC(C)C1C(=O)OC1C(=O)NC1CC1CC(NC(=O)C(C)NC(=S)NCc1ccccc1)C(=O)OCc1ccccc1 (centres unmarked) [Compound 32] | 433 | 5 | – |
| CCC(C)C1C(=O)OC1C(=O)NC1CC1CC(NC(=O)C(C)NC(=O)OC(C)(C)C)C(=O)OCC[Si](C)(C)C (centres unmarked) [Compound 15] | 200 | – | IC50 (proteasome): 18 nM |
| CC(C)C[C@@H]1C(=O)O[C@H]1C(=O)NCCCC[C@H](NC(=O)[C@H](C)N)C(=O)OCc1ccccc1 [Compound 50] | 1800 | 30 | – |
| CCC(C)C1C(=O)OC1C(=O)NC1CC1CC(NC(=O)C(C)NC(=O)c1cnccn1)C(=O)OCc1ccccc1 (centres unmarked) [Compound 36] | 62 | 21 | – |
| CCC(C)C1C(=O)OC1C(=O)NC1CC1CC(NC(=O)C(C)N)C(=O)NCc1cccc2ccccc12 (centres unmarked) [Compound 22] | < 41 | 12 | – |
| CC(C)C[C@@H]1C(=O)O[C@H]1C(=O)NC1CC1CC(NC(=O)[C@H](C)NC(=O)OC(C)(C)C)C(=O)NCc1cccc2ccccc12 (some centres unmarked) [Compound 91] | 22000 | 24 | – |
| CCC(C)C1C(=O)OC1C(=O)NC1CC1CC(NC(=O)C(C)NC(=O)c1ccccc1)C(=O)OCc1ccccc1 (centres unmarked) [Compound 33] | 76 | 15 | – |
| CCC(C)C1C(=O)OC1C(=O)NCCCC(NC(=O)C(C)N)C(=O)OCc1ccccc1 (centres unmarked) [Compound 46] | 150 | 6 | – |
| CCC(C)C1C(=O)OC1C(=O)NC1CC1CC(NC(=O)C(C)NP(=O)(c1ccccc1)c1ccccc1)C(=O)OCc1ccccc1 (centres unmarked) [Compound 41] | 2400 | 12 | – |
| CCC(C)C1C(=O)OC1C(=O)NC1CC1CC(NC(=O)C(C)NC(=O)OC(C)(C)C)C(=O)OCC1CCCCC1 (centres unmarked) [Compound 14] | 300 | – | IC50 (proteasome; crude proteasome fraction (>500K) from HeLa S3 cells, substrate Suc-Leu-Leu-Val-Tyr-AMC, 37°C for one hour): 18 nM |
| CC(C)CC1C(=O)OC1C(=O)NCCCCC(COC(=O)c1ccccc1)NC(=O)C(C)NC(=O)OC(C)(C)C (centres unmarked) [Compound 56] | 1900 | 22 | – |
| CCC(C)C1C(=O)OC1C(=O)NC1CC1CC(NC(=O)C(C)NC(=O)OC(C)(C)C)C(=O)OCc1c2ccccc2cc2ccccc12 (centres unmarked) [Compound 7] | 700 | 17 | – |
| CCC(C)C1C(=O)OC1C(=O)NC1CC1CC(NC(=O)C(C)NC(=O)NCc1ccccc1)C(=O)OCc1ccccc1 (centres unmarked) [Compound 30] | 64 | 4 | – |
| CCC(C)C1C(=O)OC1C(=O)NC1CC1CC(NC(=O)C(C)NS(=O)(=O)c1ccccc1)C(=O)OCc1ccccc1 (centres unmarked) [Compound 39] | 486 | 8 | – |
| CCC(C)C1C(=O)OC1C(=O)NC1CC1CC(NC(=O)C(C)NC(=O)OC(C)(C)C)C(=O)OCc1ccc2ccccc2c1 (centres unmarked) [Compound 5] | 30 | 6.2 | – |
| CCCCNC(=O)C(CC1CC1NC(=O)C1OC(=O)C1C(C)CC)NC(=O)C(C)NC(=O)OC(C)(C)C (centres unmarked) [Compound 24] | 20 | – | IC50 (proteasome): 15 nM |
| CCC(C)C1C(=O)OC1C(=O)NC1CC1CC(NC(=O)C(C)NC(=O)OCc1ccccc1)C(=O)OCc1ccccc1 (centres unmarked) [Compound 28] | 93 | 5 | – |

The next lines start with results.

| IC50 [1] [nM] | IC50 (proteasome; [3]) [nM] | SMILES | further results |
| --- | --- | --- | --- |
| 490 | 30 | CCC(C)C1C(=O)OC1C(=O)NC1CC1CC(NC(=O)C(C)NC(=O)OC(C)(C)C)C(=O)OC(C)(C)C (centres unmarked) [Compound 13] | – |
| 57 | 11 | CCC(C)C1C(=O)OC1C(=O)NC1CC1CC(NC(=O)C(C)N)C(=O)NCc1ccccc1 (centres unmarked) [Compound 20] | – |
| 10 | 26 | C=CCOC(=O)C(CC1CC1NC(=O)C1OC(=O)C1C(C)CC)NC(=O)C(C)NC(=O)OC(C)(C)C (centres unmarked) [Compound 9] | – |
| 450 | 24 | CCC(C)C1C(=O)OC1C(=O)NC1CC1CC(NC(=O)C(C)NS(C)(=O)=O)C(=O)OCc1ccccc1 (centres unmarked) [Compound 40] | – |
| 180 | 19 | CCC(C)C1C(=O)OC1C(=O)NC1CC1CC(NC(=O)C(C)NC(=O)OC(C)(C)C)C(=O)OCOC (centres unmarked) [Compound 17] | – |
| 160 | 13 | CCC(C)C1C(=O)OC1C(=O)NC1CC1CC(NC(=O)C(C)NC(=O)OC(C)(C)C)C(=O)N1CCOCC1 (centres unmarked) [Compound 26] | – |
| 68 | 46 | C=CCOC(=O)C(CC1CC1NC(=O)C1OC(=O)C1C(C)CC)NC(=O)C(C)N (centres unmarked) [Compound 10] | – |
| < 41 | 51 | CCCCOC(=O)C(CC1CC1NC(=O)C1OC(=O)C1C(C)CC)NC(=O)C(C)N (centres unmarked) [Compound 12] | – |
| 113 | 11 | CCC(C)C1C(=O)OC1C(=O)NC1CC1CC(NC(=O)C(C)NC(=O)NC(C)C)C(=O)OCc1ccccc1 (centres unmarked) [Compound 31] | – |
| 950 | 52 | CCC(C)C1C(=O)OC1C(=O)NC1CC1CC(NC(=O)C(C)NC(=O)OC(C)(C)C)C(=O)OCCO (centres unmarked) [Compound 16] | – |
| 93 | 27 | CCC(C)C1C(=O)OC1C(=O)NC1CC1CC(NC(=O)C(C)NC(C)=O)C(=O)OCc1ccccc1 (centres unmarked) [Compound 35] | – |
| 40 | 38 | CCC(C)C1C(=O)OC1C(=O)NC1CC1CC(NC(=O)C(C)N)C(=O)OCc1ccc2ccccc2c1 (centres unmarked) [Compound 6] | – |
| 200 | 12 | CCC(C)C1C(=O)OC1C(=O)NC1CC1CC(NC(=O)C(C)NC(=O)OC(C)(C)C)C(=O)OCC(=O)c1ccccc1 (centres unmarked) [Compound 18] | – |
| 37 | 15 | CCC(C)C1C(=O)OC1C(=O)NC1CC1CC(NC(=O)C(C)NC(=O)OC(C)(C)C)C(=O)OCc1ccccc1 (centres unmarked) [Compound 3] | – |
